Key:
Assay type in all cases: biochemical
[1] = molecular target: PDE1B (Homo sapiens, UniProt Q01064); experiment: PDE1 inhibition assay (SPA), PDE1B; settings: for IC50: concentration required to reach 50% inhibition of the enzyme, 15 nM tritium labelled cAMP, read-out: PDE1B inhibition (nM or %): IC50; for inhibition at 10 µM: 1 h, % inhibition of the enzyme at a concentration of 10 micro molar of the compound, read-out: PDE1B inhibition (nM or %): % inhib
Description: (§1) PDE1 Inhibition Assay PDE1A, PDE1B and PDE1C assays were performed as follows: the assays were performed in 60 μL samples containing a fixed amount of the PDE1 enzym1 (sufficient to convert 20-25% of the cyclic nucleotide substrate), a buffer (50 mM HEPES pH 7.6; 10 mM MgCl2; 0.02% Tween20), 0.1 mg/ml BSA, 15 nM tritium labelled cAMP and varying amounts of inhibitors. Reactions were initiated by addition of the cyclic nucleotide substrate, and reactions were allowed to proceed for 1 h at room temperature before being terminated through mixing with 20 μL (0.2 mg) yttrium silicate SPA beads (PerkinElmer). The beads were allowed to settle for 1 h in the dark before the plates were counted in a Wallac 1450 Microbeta counter. The measured signals were converted to activity relative to an uninhibited control (100%) and IC50 values were calculated using XIFit (model 205, IDBS).

[2] = molecular target: PDE1A (Homo sapiens, UniProt P54750); experiment: PDE1 inhibition assay (SPA), PDE1A; settings: for IC50: concentration required to reach 50% inhibition of the enzyme, 15 nM tritium labelled cAMP, read-out: PDE1A inhibition (nM or %): IC50; for inhibition at 10 µM: 1 h, read-out: PDE1A inhibition (nM or %): % inhib
PDE1A, sequence (P54750 whole entry): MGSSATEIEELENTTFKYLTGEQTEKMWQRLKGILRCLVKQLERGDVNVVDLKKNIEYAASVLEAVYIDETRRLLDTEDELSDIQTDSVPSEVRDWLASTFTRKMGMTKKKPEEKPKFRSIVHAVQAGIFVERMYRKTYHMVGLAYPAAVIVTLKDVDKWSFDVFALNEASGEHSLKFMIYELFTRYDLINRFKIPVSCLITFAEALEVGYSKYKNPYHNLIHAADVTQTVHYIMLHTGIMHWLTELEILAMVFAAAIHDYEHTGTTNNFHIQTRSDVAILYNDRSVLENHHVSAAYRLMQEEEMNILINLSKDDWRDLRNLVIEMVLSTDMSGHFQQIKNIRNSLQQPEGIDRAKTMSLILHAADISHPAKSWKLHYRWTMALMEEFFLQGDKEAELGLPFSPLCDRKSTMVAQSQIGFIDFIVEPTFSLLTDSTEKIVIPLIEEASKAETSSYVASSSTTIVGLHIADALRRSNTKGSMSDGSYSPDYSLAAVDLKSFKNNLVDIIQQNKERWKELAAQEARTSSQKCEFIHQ
Description: as §1

[3] = molecular target: PDE1C (Homo sapiens, UniProt Q14123); experiment: PDE1 inhibition assay (SPA), PDE1C; settings: for IC50: concentration required to reach 50% inhibition of the enzyme, 15 nM tritium labelled cAMP, read-out: PDE1C inhibition (nM or %): IC50
PDE1C, sequence (Q14123 whole entry): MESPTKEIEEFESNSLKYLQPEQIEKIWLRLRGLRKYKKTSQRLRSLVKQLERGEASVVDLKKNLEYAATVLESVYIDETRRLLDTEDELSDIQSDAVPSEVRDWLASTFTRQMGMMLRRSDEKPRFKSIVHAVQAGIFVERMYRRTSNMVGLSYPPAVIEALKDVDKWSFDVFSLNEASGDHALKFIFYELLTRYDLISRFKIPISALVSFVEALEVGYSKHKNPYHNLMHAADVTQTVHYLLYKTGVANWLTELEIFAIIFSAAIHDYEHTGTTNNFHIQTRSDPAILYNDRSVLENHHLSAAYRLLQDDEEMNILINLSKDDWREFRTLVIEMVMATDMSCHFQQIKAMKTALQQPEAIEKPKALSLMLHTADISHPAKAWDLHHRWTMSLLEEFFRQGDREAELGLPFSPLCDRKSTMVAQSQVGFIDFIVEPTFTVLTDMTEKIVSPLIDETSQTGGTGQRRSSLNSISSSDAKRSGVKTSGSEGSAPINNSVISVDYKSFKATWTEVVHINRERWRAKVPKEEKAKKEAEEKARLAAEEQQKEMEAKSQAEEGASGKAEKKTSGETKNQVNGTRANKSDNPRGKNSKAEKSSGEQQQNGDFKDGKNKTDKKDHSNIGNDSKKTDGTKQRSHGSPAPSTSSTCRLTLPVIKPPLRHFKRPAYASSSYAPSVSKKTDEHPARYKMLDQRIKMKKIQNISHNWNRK
Description: as §1

[4] = % inhibition of the enzyme at a concentration of 10 micro molar of the compound

PDE1B, sequence (Q01064 whole entry): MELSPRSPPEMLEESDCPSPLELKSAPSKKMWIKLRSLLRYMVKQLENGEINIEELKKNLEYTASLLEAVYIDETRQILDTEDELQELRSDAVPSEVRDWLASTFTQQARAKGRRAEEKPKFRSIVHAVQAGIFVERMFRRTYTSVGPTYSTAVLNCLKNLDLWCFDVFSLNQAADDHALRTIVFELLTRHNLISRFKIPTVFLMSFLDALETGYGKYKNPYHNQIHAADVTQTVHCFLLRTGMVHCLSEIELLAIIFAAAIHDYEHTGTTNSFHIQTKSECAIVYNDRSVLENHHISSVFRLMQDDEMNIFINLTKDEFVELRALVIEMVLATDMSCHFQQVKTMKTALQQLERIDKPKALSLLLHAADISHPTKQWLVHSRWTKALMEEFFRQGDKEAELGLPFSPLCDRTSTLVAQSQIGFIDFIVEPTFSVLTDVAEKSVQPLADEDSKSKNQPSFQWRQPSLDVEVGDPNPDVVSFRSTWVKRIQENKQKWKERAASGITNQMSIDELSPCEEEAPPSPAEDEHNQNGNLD

CCCc1nnc2c(=O)n(CC3CCCCC3C)ccn12 (mixture of isomers) [7-((2-methylcyclohexyl)methyl)-3-propyl-[1,2,4]triazolo[4,3-a]pyrazin-8(7H)-one]
IC50 [1]: 260 nM | IC50 [2]: 320 nM | IC50 [3]: 240 nM

CCCc1nnc2c(=O)n(CC3CCCC(C)C3)ccn12 (mixture of isomers) [7-((3-methylcyclohexyl)methyl)-3-propyl-[1,2,4]triazolo[4,3-a]pyrazin-8(7H)-one]
IC50 [1]: 230 nM | IC50 [2]: 320 nM | IC50 [3]: 83 nM

CCCc1nnc2c(=O)n(CC3CCC(F)CC3)ccn12 (mixture of isomers) [7-((4-fluorocyclohexyl)methyl)-3-propyl-[1,2,4]triazolo[4,3-a]pyrazin-8(7H)-one]
IC50 [1]: 560 nM | IC50 [2]: 660 nM | IC50 [3]: 610 nM

CCCc1nnc2c(=O)n(CC3CCC(C)CC3)ccn12 (racemic) [7-((4-methylcyclohexyl)methyl)-3-propyl-[1,2,4]triazolo[4,3-a]pyrazin-8(7H)-one]
IC50 [1]: 53 nM | IC50 [2]: 83 nM | IC50 [3]: 65 nM

CCCc1nnc2c(=O)n(Cc3cccc(F)c3)cc([C@H]3CCOC3)n12 (single isomer, unassigned)
IC50 [1]: 2300 nM | IC50 [2]: 1610 nM | IC50 [3]: 260 nM

CCCc1nnc2c(=O)n(Cc3cccc(F)c3)c([C@H]3CCOC3)cn12 (single isomer, unassigned)
IC50 [1]: 1800 nM | IC50 [2]: 2980 nM | IC50 [3]: 290 nM

CCCc1nnc2c(=O)n(Cc3cccc(F)c3)cc([C@@H]3CCOC3)n12 (single isomer, unassigned)
IC50 [1]: 1000 nM | IC50 [2]: 1780 nM | IC50 [3]: 260 nM

CCCc1nnc2c(=O)n(Cc3cccc(F)c3)c([C@@H]3CCOC3)cn12 (single isomer, unassigned)
IC50 [1]: 1100 nM | IC50 [2]: 1100 nM | IC50 [3]: 270 nM

CCCc1nnc2c(=O)n(CC3CCOC3)ccn12 (single isomer, unassigned) [3-Propyl-7-((tetrahydrofuran-3-yl)methyl)-[1,2,4]triazolo[4,3-a]pyrazin-8(7H)-one]
inhibition at 10 µM [1]: 67% | IC50 [1]: 4000 nM

O=c1c2nnc(CC3CCCO3)n2ccn1Cc1cccc(F)c1 (single isomer, unassigned) [7-(3-Fluorobenzyl)-3-((tetrahydrofuran-2-yl)methyl)-[1,2,4]t] [7-(3-Fluorobenzyl)-3-((tetrahydrofuran-2-yl)methyl)-[1,2,4]triazolo[4,3-a]pyrazin-8(7H)-one]
PDE1A inhibition (nM or %): % inhib [2, 4]: 49%

O=c1c2nnc(CC3CCCO3)n2ccn1Cc1cccc(F)c1 (single isomer, unassigned) [7-(3-Fluorobenzyl)-3-((tetrahydrofuran-2-yl)methyl)-[1,2,4]triazolo[4,3-a]pyrazin-8(7H)-one]
inhibition at 10 µM [1]: 67% | IC50 [1]: 3700 nM | inhibition at 10 µM [2, 4]: 67%

O=c1c2nnc(C3CCCCO3)n2ccn1Cc1cccc(F)c1 (single isomer, unassigned) [7-(3-Fluorobenzyl)-3-(tetrahydro-2H-pyran-2-yl)-[1,2,4]triaz] [7-(3-Fluorobenzyl)-3-(tetrahydro-2H-pyran-2-yl)-[1,2,4]triazolo[4,3-a]pyrazin-8(7H)-one]
IC50 [2]: 3200 nM

O=c1c2nnc(C3CCCCO3)n2ccn1Cc1cccc(F)c1 (single isomer, unassigned) [7-(3-Fluorobenzyl)-3-(tetrahydro-2H-pyran-2-yl)-[1,2,4]triazolo[4,3-a]pyrazin-8(7H)-one]
IC50 [2]: 3200 nM

O=c1c2nnc(C3CCCOC3)n2ccn1Cc1cccc(F)c1 (single isomer, unassigned) [7-(3-Fluorobenzyl)-3-(tetrahydro-2H-pyran-3-yl)-[1,2,4]triaz] [7-(3-Fluorobenzyl)-3-(tetrahydro-2H-pyran-3-yl)-[1,2,4]triazolo[4,3-a]pyrazin-8(7H)-one]
IC50 [2]: 1800 nM

O=c1c2nnc(C3CCCOC3)n2ccn1Cc1cccc(F)c1 (single isomer, unassigned) [7-(3-Fluorobenzyl)-3-(tetrahydro-2H-pyran-3-yl)-[1,2,4]triazolo[4,3-a]pyrazin-8(7H)-one]
IC50 [2]: 1800 nM

O=c1c2nnc(C3CCOC3)n2ccn1Cc1cccc(F)c1 (single isomer, unassigned) [7-(3-Fluorobenzyl)-3-(tetrahydrofuran-3-yl)-[1,2,4]triazolo[4,3-a]pyrazin-8(7H)-one]
IC50 [3]: 240 nM

O=c1c2nnc(C3CCOC3)n2ccn1Cc1cccc(F)c1 (single isomer, unassigned) [7-(3-Fluorobenzyl)-3-(tetrahydrofuran-3-yl)-[1,2,4]triazolo[] [7-(3-Fluorobenzyl)-3-(tetrahydrofuran-3-yl)-[1,2,4]triazolo[4,3-a]pyrazin-8(7H)-one]
IC50 [3]: 240 nM

CCCc1nnc2c(=O)n(CC3CCC(C)CC3)ccn12 (single isomer, unassigned) [7-(((1 r,4r)-4-methylcyclohexyl)methyl)-3-propyl-[1,2,4]triazolo[4,3-a]pyrazin-8(7H)-one]
IC50 [1]: 40 nM | IC50 [2]: 79 nM | IC50 [3]: 120 nM

CCCc1nnc2c(=O)n(CC3CCC(C)CC3)ccn12 (single isomer, unassigned) [7-(((1s,4s)-4-methylcyclohexyl)methyl)-3-propyl-[1,2,4]triazolo[4,3-a]pyrazin-8(7H)-one]
IC50 [1]: 24 nM | IC50 [2]: 111 nM | IC50 [3]: 36 nM

CC(F)(F)c1nnc2c(=O)n(Cc3cccc(F)c3)ccn12 [3-(1,1-Difluoroethyl)-7-(3-fluorobenzyl)-[1,2,4]triazolo[4,3-a]pyrazin-8(7H)-one]
IC50 [1]: 2700 nM | IC50 [2]: 2500 nM | IC50 [3]: 550 nM

O=c1c2nnc(C3CCCCC3)n2ccn1Cc1cccc(F)c1 [3-Cyclohexyl-7-(3-fluorobenzyl)-[1,2,4]triazolo[4,3-a]pyrazin-8(7H)-one]
IC50 [1]: 590 nM | IC50 [2]: 810 nM | IC50 [3]: 120 nM

O=c1c2nnc(C3CCCC3)n2ccn1Cc1cccc(F)c1 [3-Cyclopentyl-7-(3-fluorobenzyl)-[1,2,4]triazolo[4,3-a]pyrazin-8(7H)-one]
IC50 [1]: 290 nM | IC50 [2]: 420 nM | IC50 [3]: 800 nM

O=c1c2nnc(C3CC3)n2ccn1Cc1cccc(F)c1 [3-Cyclopropyl-7-(3-fluorobenzyl)-[1,2,4]triazolo[4,3-a]pyrazin-8(7H)-one]
IC50 [1]: 780 nM | IC50 [2]: 500 nM | IC50 [3]: 210 nM

CCCc1nnc2c(=O)n(Cc3ccccc3C(F)(F)F)ccn12 [3-Propyl-7-(2-(trifluoromethyl)benzyl)-[1,2,4]triazolo[4,3-a]pyrazin-8(7H)-one]
inhibition at 10 µM [1]: 46% | inhibition at 10 µM [2, 4]: 44% | PDE1C inhibition (nM or %): % inhib [3, 4]: 41%

CCCc1nnc2c(=O)n(Cc3ccc(C(F)(F)F)cc3)ccn12 [3-Propyl-7-(4-(trifluoromethyl)benzyl)-[1,2,4]triazolo[4,3-a]pyrazin-8(7H)-one]
IC50 [1]: 570 nM | IC50 [2]: 1200 nM | IC50 [3]: 2100 nM

CCCc1nnc2c(=O)n(CC3CCOCC3)ccn12 [3-Propyl-7-((tetrahydro-2H-pyran-4-yl)methyl)-[1,2,4]triazolo[4,3-a]pyrazin-8(7H)-one]
inhibition at 10 µM [1]: 47% | inhibition at 10 µM [2, 4]: 42% | IC50 [3]: 1600 nM

CCCc1nnc2c(=O)n(CC3CCC4(CC3)CC4)ccn12 [3-propyl-7-(spiro[2.5]octan-6-ylmethyl)-[1,2,4]triazolo[4,3-a]pyrazin-8(7H)-one]
IC50 [1]: 53 nM | IC50 [2]: 86 nM | IC50 [3]: 92 nM

CCCc1nnc2c(=O)n(Cc3cccc(F)c3)cc(Br)n12 [5-bromo-7-(3-fluorobenzyl)-3-propyl-[1,2,4]triazolo[4,3-a]pyrazin-8(7H)-one]
IC50 [1]: 180 nM | IC50 [2]: 149 nM | IC50 [3]: 72 nM

CCCc1nnc2c(=O)n(Cc3cccc(F)c3)cc(CC)n12 [5-ethyl-7-(3-fluorobenzyl)-3-propyl-[1,2,4]triazolo[4,3-a]pyrazin-8(7H)-one]
IC50 [1]: 510 nM | IC50 [2]: 858 nM | IC50 [3]: 180 nM

O=c1c2nnc(C3CCOCC3)n2cc(Cc2cccc(F)c2)n1Cc1cccc(F)c1 [6,7-bis(3-fluorobenzyl)-3-(tetrahydro-2H-pyran-4-yl)-[1,2,4]triazolo[4,3-a]pyrazin-8(7H)-one]
IC50 [1]: 40 nM | IC50 [2]: 47 nM | IC50 [3]: 8 nM

O=c1c2nnc(C3CCOCC3)n2cc(Cc2ccc(-c3ccccc3)cc2)n1CC1CCCCC1 [6-([1,1′-biphenyl]-4-ylmethyl)-7-(cyclohexylmethyl)-3-(tetrahydro-2H-pyran-4-yl)-[1,2,4]triazolo[4,3-a]pyrazin-8(7H)-one]
IC50 [1]: 0.17 nM | IC50 [2]: 0.33 nM | IC50 [3]: 0.1 nM

O=c1c2nnc(C3CCOCC3)n2cc(Cc2ccccc2)n1Cc1cccc(F)c1 [6-benzyl-7-(3-fluorobenzyl)-3-(tetrahydro-2H-pyran-4-yl)-[1,2,4]triazolo[4,3-a]pyrazin-8(7H)-one]
IC50 [1]: 18 nM | IC50 [2]: 32 nM | IC50 [3]: 5 nM
